Experiments:
[1] = tested on: C. albicans strain SC5314; test: crystal violet based biofilm assay (24 hours, OD600); format: cell-based, Candida albicans; settings: crystal violet staining, 10-20 uM of respective peptides
Procedure: FIG. 13. […] Biofilm formation was measured in an assay that quantitates biofilms by staining with a crystal violet dye. The amount of dye absorbed by the biofilm positively correlates with amount of biofilm present. Amount of dye is measured via an optical density reading at a wavelength of 600 nm (OD600). Biofilm formation is measured over 24 hours in the presence or absence of peptides at 10, 30, or 40 uM concentrations.
(§1) Candida albicans (sc3514 cited in: Romanowski et al. PLOS One 7: e30119, 2012.: incorporated by reference in its entirety) and Candida tropicalis (ATCC #13803) were maintained in frozen glycerol stocks at −80° C. and streaked out on yeast-peptone-dextrose (YPD) agar plates for 48 hours at 30° C. prior to use. Single colonies were selected and cultured in YPD media at 30° C. Biofilm assays were performed using crystal violet straining (Taff et al. Med Mycol 50:214-218, 2012.: incorporated by reference in its entirety) in the presence of 10-20 uM of respective peptides. To induce hyphal growth, strains were placed in YPD+5% FBS or RPMI media at 37° C. for 4 hours. To image hyphal membrane disruption, the DNA binding fluorescent dye, propidium iodide (PI), was added to wells strains in the presence of peptides and imaged under bright field and far red fluorescent conditions. […] To investigate Candida albican virulence gene expression, 10 μL of a 1.0 OD600 culture were placed in 1 mL RPMI at 37° C. with shaking for 8 hours. Cultures were centrifuged at 3000×g for 5 minutes and RNA isolation was performed as described below.
Antifungal activity of peptides described in this application was tested by performing a crystal violet based biofilm assay. In this assay, Candida albicans is induced to form a biofilm in a 96-well plate for 24 hours in the presence or absence of peptide. Biofilm formation is quantitated through crystal violet staining and solubilization followed by optical density reading. […] Data are OD600 values normalized to appropriate within experiment vehicle control. Statistical analysis was performed via 2-Way ANOVA with multiple comparisons post-test. Significance is denoted by: *=p<0.05; **=p<0.01; ***-p<0.001; ****=p<0.0001. ns=not significant.

[2] = tested on: Candida albicans virulence genes; test: virulence gene expression by qRT-PCR; format: cell-based; settings: hyphal form, RPMI at 37° C., compared with scrambled peptide controls
Procedure: as §1

[3] = tested on: C. tropicalis; test: respiration of C. tropicalis; format: cell-based, Candida tropicalis
[4] = tested on: C. albicans; test: respiration of C. albicans; format: cell-based, Candida albicans
[5] = tested on: Candida albicans; test: Candida albicans culture growth; format: cell-based; settings: hyphal inducing conditions (broth culture containing serum)

Magainin-2
inhibition of biofilm formation [1]: inhibit biofilm formation
virulence gene expression [2]: induced expression of several virulence genes
respiration ([3]; hyphal form): suppressed respiration
respiration ([3]; yeast form): suppressed activity
respiration ([4]; hyphal form): suppressed respiration
respiration ([4]; yeast form): suppressed activity
C. albicans culture growth [5]: inhibited culture growth

— patent publication US12240890B2, “Compositions and methods for treating and/or preventing pathogenic fungal infection and for maintenance of microbiome commensalism” (priority 2017, dated 2025)
